Experimental data reported in patent US20240091217A1, “STABLE PHARMACEUTICAL ORAL LIQUID FORMULATION OF AN ANTISPASMODIC AGENT” (priority 2022, published 2024).

Legend:
[1] = cited from earlier work
[2] = Solubilizing Drotaverine HCl in dispersion media of sorbitol liquid, glycerin and water, storage; assay type: physicochemical; conditions: glycerin, water 1:1:1 to 3:2:1, no stabilizing agent
Text: The inventors of the present disclosure tried solubilizing Drotaverine HCl in a ratio of dispersion media containing sorbitol liquid, glycerin, and water ranging from 1:1:1 to 3:2:1, respectively. […] To obtain a physically and chemically stable product with good shelf life, the present inventors resolved this precipitation of Drotaverine in the proposed dispersion media. In order to avoid the precipitation of Drotaverine, the present inventors added a stabilizing agent to the dispersion media.

[3] = cited from earlier work; remark: listed apart in the source
[4] = Degradation of Drotaverine HCl under stress conditions; assay type: physicochemical; conditions: alkaline medium, higher oxidative stress conditions, presence of light
Text: In some embodiments, the disclosed formulations employ very few excipients, all of which are completely safe for pediatric patients, economical, and readily available.

## CCOc1ccc(C=C2NCCc3cc(OCC)c(OCC)cc32)cc1OCC [Drotaverine, 1-[(3,4-diethoxyphenyl)methylene]-6,7-diethoxy-1,2,3,4-tetrahydroisoquinoline]
[1]
  oral LD50: > 1000 mg/Kg body weight
[2]
  precipitation on storage: re-precipitated on storage
[3]; after oral administration of 80 mg strength IR tablets
  onset of action: ≤ 12 min
[3]; humans, Drotaverine IR tablets 80 mg
  renal clearance as share of the total plasma clearance: 0.31+/−0.13%
[3]; humans, oral, subject dependent
  Absolute bioavailability (range): 24.5-91%
[3]; humans, oral
  Absolute bioavailability, mean (mean+/-SD): 58.2+/−18.2%
[4]
  degradation: degrades extensively
